Values of other authors, collected in patent US12582591B2, “Increased solubilization of ethylhexyl triazone” (DSM IP Assets B.V., priority 2020, dated 2026).
Read-outs that look alike come from different tables or passages of the source.

Conditions: for Solubility in esters and alcohols: particularly ethyl acetate, ethanol / alcohols
[1] = listed as UV-filter of the formula (I)

**Q.** With `CCCCC(CC)COC(=O)c1ccc(Nc2nc(Nc3ccc(C(=O)OCC(CC)CCCC)cc3)nc(Nc3ccc(C(=O)OCC(CC)CCCC)cc3)n2)cc1` (stereo not shown) [Ethylhexyl triazone, ethylhexyl triazone] as the compound, how does the “Solubility in esters and alcohols” value read?
**A.** The value was “moderate solubility”.

**Q.** And the “Solubility in esters and alcohols” value [1]?
**A.** Its value is “very soluble”.

**Q.** What about the “Solubility in water and alkanes” value of the same compound?
**A.** The value was “very low”.

**Q.** And the “Solubility in water and alkanes” value [1]?
**A.** Its value is “insoluble”.
